The text below walks through data of patent US9512121B2, “[1,2,4] triazol [4,3-A] pyridine derivative, preparation method therefor or medical application thereof” (Jiangsu Hansoh Pharmaceutical Co., Ltd., priority 2013, dated 2016).

What is called AUC is concentration integrated over time. A word on the MRT: it is the average time that molecules of a dose stay in the body. As usually defined, the Cmax is the peak of the concentration-time curve.

Data set [1] can be described thus: Pharmacokinetic test in rats after intragastric administration (LC/MS/MS of plasma). It is filed as in vivo, Sprague-Dawley (SD) rats. As to conditions: SD rats, protocol 10.0 mg/kg; for Vd/F / AUC / CL/F / half-life / MRT / Cmax: both sexes, Sprague-Dawley, rat, plasma, po; for Vd/F: read-out: Apparent Distribution Volume Vz/F; for AUC: read-out: Area Under Curve AUC; for CL/F: read-out: Clearance CL/F; for half-life: read-out: Half life t1/2 (converted); for MRT: read-out: Mean Residence Time MRT; for Cmax: read-out: Plasma Conc. Cmax. Here is the method:
Rats were used as test animals. A LC/MS/MS method was used to determine drug concentration in plasma at different time points after the rats were administered the compounds of Examples 3, 22 and 28 intragastrically. The pharmacokinetic behavior of the compounds of the present invention was studied and evaluated in rats.
Eight healthy adult Sprague-Dawley (SD) rats, half male and half female, were divided into 2 groups with 4 rats in each group. The animals were purchased from SINO-BRITISH SIPPR/BK LAB. ANIMAL LTD., CO, Certificate No.: SCXK (Shanghai) 2008-0016.
A certain amount of test compounds was weighed. 1.0 mL of dimethyl sulfoxide was added to dissolve the compounds. Normal saline was added to prepare a 1.0 mg/mL solution. The concentration of DMSO was kept at 5%. […]
Compounds of Example 3, 22 and 28 were administered intragastrically to rats. Blood samples (0.1 mL) were taken from the orbital sinus before the administration, and at 0.5, 1.0, 2.0, 3.0, 4.0, 6.0, 8.0, 12.0, 24.0, and 36.0 hours after administration. The blood sample was placed in a heparinized tube, and then centrifuged for 10 minutes at 4° C., at 10000 rpm to separate blood plasma. The plasma samples were stored at −20° C. The rats were fed 2 hours after compound administration.
Content determination of the test compounds in rat plasma after intragastrically administering at different concentrations: 50 μL of rat plasma taken at various time points after administration were mixed with 50 μL of internal standard solution and 100 μL of methanol, and mixed for 3 minutes by a vortexer. The mixture was centrifuged for 10 minutes at 13,500 rpm. 10 μL of the supernatant were taken from the plasma sample and analyzed by LC-MS/MS.

In data set [2] the test system is hepatocellular carcinoma cell lines HCCLM3, MHCC97-H, MHCC97-L, and stomach cancer cell lines SNU5, MKN-45. Description: Growth inhibition of cancer cell lines (CellTiter-Glo, 72 hours). The note with it: read-out: Half inhibitory concentration (IC50), cell activity. Background: In ATP-based viability assays light output follows the ATP content of the culture.
Method: The purpose is to measure the growth inhibition effect of the compound on hepatocellular carcinoma cell lines HCCLM3, MHCC97-H, MHCC97-L, and stomach cancer cell lines SNU5, MKN-45.
The positive control and the test compounds were firstly dissolved in 100% dimethyl sulfoxide to prepare a 20 mM stock solution, which was stored at −20° C. in a refrigerator. Before the experiment, the above stock solution was diluted with culture medium containing 0.6% dimethyl sulfoxide to prepare a 20× fold solution for each test concentration.
(1) To each well of 96-well plate was added 100 μl culture medium containing 2000 cells (HCCLM3/MHCC97-H/MHCC97-L was cultured in DMEM plus 10% FBS; SNU5 was cultured in IMDM plus 10% FBS; and MKN45 was cultured in RPMI1640 plus 10% GFBS). The plate was incubated in a 5% CO2 incubator overnight.
(2) 20 μl diluted positive control or test compounds were added to each well, with two duplicate wells for each dilution. To the blank well and the control well were each added 20 μl culture medium containing 0.6% dimethyl sulfoxide. […]
(5) BioTek microplate reader was used to measure the luminescence signal of each well.
(6) Using GraphPad software, a non-linear regression curve was generated based on the inhibition ratio as a function of the concentration of the compounds. The IC50 was calculated using a S-shaped dose-effect curve fitting.
The target in data set [3] is c-MET tyrosine kinase (Homo sapiens (Human), UniProt P08581). Description: c-MET tyrosine kinase enzyme activity (inhibition of phosphorylation, fluorescence). As to conditions: read-out: Half inhibitory concentration (IC50) on the receptor tyrosine kinase c-MET, enzyme activity.
Method: The average inhibition rate of kinase and IC50 values were determined by a NovoStar microplate reader (BMG Co., Germany).
The purpose is to study the effect of the compounds on c-MET tyrosine kinase activity at the molecular level. IC50 values were calculated from the data of the inhibition rates of the compounds on c-MET tyrosine kinase phosphorylation at various concentrations, thereby evaluating the compounds.
The positive control and the test compounds were first dissolved in 100% dimethyl sulfoxide to prepare a 20 mM stock solution, which was stored at −20° C. in a freezer.
Just before the experiment, the above stock solution was diluted to a final concentration of 4% in dimethyl sulfoxide.
According to the need of dilution ratio, endonuclease was diluted in display buffer B.
All of the compounds were diluted within a 96-well plate.
The plate was incubated at room temperature for 1 hour.
5 μL display buffer were added, and the plate was incubated at room temperature for another 1 hour.
Using GraphPad software, a non-linear regression curve was generated based on the inhibition ratio as a function of the concentration of the compounds. The IC50 was calculated using a S-shaped dose-effect curve fitting.
The conditions of data set [4]: cited from earlier work.

Sequence of c-MET tyrosine kinase (P08581 25-1390): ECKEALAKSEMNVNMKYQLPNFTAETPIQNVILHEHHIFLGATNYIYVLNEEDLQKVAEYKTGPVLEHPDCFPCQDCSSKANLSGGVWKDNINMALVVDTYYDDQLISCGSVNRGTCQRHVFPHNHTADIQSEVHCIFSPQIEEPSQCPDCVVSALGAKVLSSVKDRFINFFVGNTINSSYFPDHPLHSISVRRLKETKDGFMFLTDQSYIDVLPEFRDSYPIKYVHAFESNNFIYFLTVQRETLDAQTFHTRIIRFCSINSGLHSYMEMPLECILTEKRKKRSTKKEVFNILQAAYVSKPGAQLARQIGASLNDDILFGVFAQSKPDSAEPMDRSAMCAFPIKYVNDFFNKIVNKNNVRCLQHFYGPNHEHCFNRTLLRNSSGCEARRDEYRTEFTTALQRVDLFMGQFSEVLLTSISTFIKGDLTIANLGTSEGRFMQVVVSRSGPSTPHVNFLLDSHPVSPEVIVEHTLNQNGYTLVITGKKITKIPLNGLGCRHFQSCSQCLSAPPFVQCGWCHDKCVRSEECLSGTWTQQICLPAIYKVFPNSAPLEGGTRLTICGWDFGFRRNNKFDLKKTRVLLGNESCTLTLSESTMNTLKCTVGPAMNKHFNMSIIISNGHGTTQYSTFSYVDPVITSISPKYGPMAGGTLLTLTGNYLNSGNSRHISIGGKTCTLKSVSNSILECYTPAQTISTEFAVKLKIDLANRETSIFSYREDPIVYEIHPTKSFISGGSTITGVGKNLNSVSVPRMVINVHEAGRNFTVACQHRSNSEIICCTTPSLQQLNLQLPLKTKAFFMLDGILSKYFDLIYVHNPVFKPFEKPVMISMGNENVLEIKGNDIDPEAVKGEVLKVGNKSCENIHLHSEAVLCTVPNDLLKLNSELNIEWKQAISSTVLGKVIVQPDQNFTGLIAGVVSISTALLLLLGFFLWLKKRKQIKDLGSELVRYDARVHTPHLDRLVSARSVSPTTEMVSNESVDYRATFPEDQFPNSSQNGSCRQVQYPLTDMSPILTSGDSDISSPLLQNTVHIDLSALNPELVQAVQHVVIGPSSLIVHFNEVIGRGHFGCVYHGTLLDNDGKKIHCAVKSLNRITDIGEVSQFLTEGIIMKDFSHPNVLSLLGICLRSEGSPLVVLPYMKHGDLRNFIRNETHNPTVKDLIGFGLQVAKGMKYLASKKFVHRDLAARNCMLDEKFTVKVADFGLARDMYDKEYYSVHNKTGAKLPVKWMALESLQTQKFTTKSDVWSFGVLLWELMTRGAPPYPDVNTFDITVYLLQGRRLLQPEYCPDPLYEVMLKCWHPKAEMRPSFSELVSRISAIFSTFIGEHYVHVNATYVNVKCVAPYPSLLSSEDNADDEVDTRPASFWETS

`Cn1cc(-c2ccc3nnc(Sc4ccc5ncc(N6CCOCC6)c(F)c5c4)n3c2)cn1` [Example 28, 4-(4-fluoro-6-((6-(1-methyl-1H-pyrazol-4-yl)-[1,2,4]triazolo[4,3-a]pyridin-3-yl)thio)quinolin-3-yl)morpholine]: in data set [1], the Vd/F was found to be 1.13 ± 0.79 L/kg, the AUC came to 30900 ± 25500 ng·h/mL, the CL/F amounted to 4.06 ± 2.4 mL/min/kg and the half-life is 188 ± 32.4 min. Besides, in data set [1], the MRT came to 5.17 ± 0.95 h and the Cmax is 3600 ± 1820 ng/mL.
Turning to `Cn1cc(-c2cc(F)c3nnc(Sc4ccc5ncc6c(c5c4)OCCO6)n3c2)cn1` [Example 3, 9-((8-fluoro-6-(1-methyl-1H-pyrazol-4-yl)-[1,2,4]triazolo[4,3-a]pyridin-3-yl)thio)-2,3-dihydro-[1,4]dioxino[2,3-c]quinoline], in data set [1], the Vd/F stood at 0.667 ± 0.087 L/kg, the AUC was determined as 79300 ± 40700 ng·h/mL, the CL/F came out at 1.33 ± 0.76 mL/min/kg and the half-life is 452 ± 274 min. Besides, in data set [1], the MRT turned out to be 11.6 ± 5.8 h and the Cmax stood at 5000 ± 957 ng/mL.
On to `CN1C(=O)COc2c1cnc1ccc(Sc3nnc4c(F)cc(-c5cnn(C)c5)cn34)cc21` [Example 22, 9-((8-fluoro-6-(1-methyl-1H-pyrazol-4-yl)-[1,2,4]triazolo[4,3-a]pyridin-3-yl)thio)-4-methyl-2H-[1,4]oxazino[3,2-c]quinolin-3(4H)-one], for which, in data set [1], the Vd/F amounted to 0.327 ± 0.037 L/kg, the AUC came to 122000 ± 13900 ng·h/mL, the CL/F is 0.686 ± 0.071 mL/min/kg and the half-life is 333 ± 46.8 min. Besides, in data set [1], the MRT is 9.1 ± 0.85 h and the Cmax was 8630 ± 592 ng/mL. In addition, in data set [2], the IC50 stood at 2 nM. In addition, the IC50 in data set [3] came out at 2.9 nM.
As to `Cn1cc(-c2ccc3nnc(Sc4ccc5ncccc5c4)n3n2)cn1` [SNG-523], in data set [4], the “outcome of clinical trials (toxicity)” value is reported as “discontinued in clinical trials due to renal toxicity”.
On to `CN1C(=O)COc2c1cnc1ccc(Sc3nnc4c(OC(F)F)cc(-c5cnn(C)c5)cn34)cc21` [Example 13, 9-((8-(difluoromethoxy)-6-(1-methyl-1H-pyrazol-4-yl)-[1,2,4]triazolo[4,3-a]pyridin-3-yl)thio)-4-methyl-2H-[1,4]oxazino[3,2-c]quinolin-3(4H)-one], for which the IC50 in data set [2] and in data set [3] was over 1000 nM each time.
Consider `Cn1cc(-c2ccc3nnc(C(F)(F)c4ccc5ncccc5c4)n3n2)cn1` [JNJ-38877605, reference compound], for which, in data set [1], the “Apparent Distribution Volume Vz/F” value is 1480 ± 613 mL/kg, the “Area Under Curve AUC” value came to 17325 ± 9505 ng·h/mL, the “Clearance CL/F” value stood at 5.81 ± 2.54 mL/min/kg and the “Half life t1/2” value amounted to 2.97 ± 0.25 h. In addition, in data set [1], the “Mean Residence Time MRT” value is given as 4.90 ± 0.62 h and the “Plasma Conc. Cmax” value stood at 2373 ± 1444 ng/mL. Moreover, in data set [4], the “outcome of clinical trials (toxicity)” value is reported as “discontinued in clinical trials due to renal toxicity”.
